In data set [1] the test system is JFH-1 HCVcc-Luc. Description: microbe, parasite or virus in culture. Particulars: for inhibition of HCV infection (in words): Huh7.5.1 cells, comparisons are to aglaroxin C (6). Type of data set: cell-based, Hepatitis C virus.
Data set [2] relates to Huh7.5.1 cells. Description: Cytotoxicity, CellTiter-Glo Cell Viability Luminescent Assay. Type of data set: cell-based, human. Particulars: Huh7.5.1 cells; comparisons are to aglaroxin C (6). The procedure:
To determine the […] of each compound, Huh7.5.1 cells were treated with compounds or DMSO at indicated doses for 3 h in 96-well plates. After removal of compounds, cells were further incubated for 72 h prior to the viability assay. The numbers of viable cells in culture were determined using the CellTiter-Glo Cell Viability Luminescent Assay kit according to the manufacturer's instruction (Promega). Percentages of toxicity were calculated using the formulas: 100-percentage of vial cells relative to that from the dimethyl sulfoxide (DMSO) treated group (100%) (n=3) (FIG. 20-FIG. 57).
A general note: Cellular ATP, detected with luciferase, serves as a proxy for viable cell number.

Consider 9 molecules from patent US11427595B2, “Compositions and methods for inhibiting viral infection” (Trustees of Boston University, priority 2018, dated 2022).

By EC50 is commonly meant the concentration giving half of the maximal effect.

For `COc1ccc([C@@]23Oc4cc(OC)cc(OC)c4[C@]2(O)c2nc(-c4ccccn4)[nH]c(=O)c2[C@H]3c2ccccc2)cc1` [12ab, (5R,5aR,10bS)-10b-Hydroxy-8,10-dimethoxy-5a-(4-methoxyphenyl)-5-phenyl-2-(pyridin-2-yl)-3,5,5a,10b-tetrahydro-4H-benzofuro[2′,3′:4,5]cyclopenta[1,2-d]pyrimidin-4-one], in data set [1], the “inhibition of HCV infection (in words)” value is listed as “slightly increased inhibition”.
On the same count and under the same terms, the entry for `COc1ccc([C@@]23Oc4cc(OC)cc(OC)c4[C@]2(O)c2nc4n(c(=O)c2[C@H]3c2ccccc2)CCCC4)cc1` [12ad, (5aR,6R,13bS)-13b-Hydroxy-1,3-dimethoxy-5a-(4-methoxyphenyl)-6-phenyl-6,9,10,11,12,13b-hexahydrobenzofuro[2′,3′:4,5]cyclopenta[1,2-d]pyrido[1,2-a]pyrimidin-7(5aH)-one] is “moderate antiviral activity”; for `COc1ccc([C@@]23Oc4cc(OC)cc(OC)c4[C@]2(O)c2nc(Nc4ccccc4)n(-c4ccccc4)c(=O)c2[C@H]3c2ccccc2)cc1` [12af, (5R,5aR,10bS)-10b-Hydroxy-8,10-dimethoxy-5a-(4-methoxyphenyl)-3,5-diphenyl-2-(phenylamino)-3,5,5a,10b-tetrahydro-4H-benzofuro[2′,3′:4,5]cyclopenta[1,2-d]pyrimidin-4-one] it is “moderate antiviral activity”.
As for `COc1ccc([C@@]23Oc4cc(OC)cc(OC)c4[C@]2(O)c2nc(-c4ccccc4)[nH]c(=O)c2[C@@H]3c2ccccc2)cc1` [12ah, (5S,5aR,10bS)-10b-Hydroxy-8,10-dimethoxy-5a-(4-methoxyphenyl)-2,5-diphenyl-3,5,5a,10b-tetrahydro-4H-benzofuro[2′,3′:4,5]cyclopenta[1,2-d]pyrimidin-4-one], the “inhibition of HCV infection (in words)” value in data set [1] is “inactive”. Also, the “cytotoxicity (in words)” value in data set [2] was “no cytotoxicity”.
Take `COc1ccc([C@@]23Oc4cc(OC)cc(OC)c4[C@]2(OC)c2nc(-c4ccccc4)n(C)c(=O)c2[C@H]3c2ccccc2)cc1` [12ai, (5R,5aR,10bS)-8,10,10b-Trimethoxy-5a-(4-methoxyphenyl)-3-methyl-2,5-diphenyl-3,5,5a,10b-tetrahydro-4H-benzofuro[2′,3′:4,5]cyclopenta[1,2-d]pyrimidin-4-one]: the concentration for a half-maximal effect (EC50) in data set [1] (Hepatitis C virus, Huh-7.5.1, read-out: EC50, inhibition of HCV infection) came to 9.2 µM.
For the molecule `COc1ccc([C@@]23Oc4cc(OC)cc(OC)c4[C@]2(O)c2nc(-c4ccccc4)nc(OC)c2[C@H]3c2ccccc2)cc1` [12aj, (5R,5aR,10bS)-4,8,10-Trimethoxy-5a-(4-methoxyphenyl)-2,5-diphenyl-5,5a-dihydro-10bH-benzofuro[2′,3′:4,5]cyclopenta[1,2-d]pyrimidin-10b-ol], the “inhibition of HCV infection (in words)” value in data set [1] is “inactive”. Moreover, the “cytotoxicity (in words)” value in data set [2] is “non-toxic”.
In the case of `COc1ccc([C@@]23Oc4cc(OC)cc(OC)c4[C@]2(O)c2nc(C4CC4)[nH]c(=O)c2[C@H]3c2ccccc2)cc1` [12h, (5R,5aR,10bS)-2-Cyclopropyl-10b-hydroxy-8,10-dimethoxy-5a-(4-methoxyphenyl)-5-phenyl-3,5,5a,10b-tetrahydro-4H-benzofuro[2′,3′:4,5]cyclopenta[1,2-d]pyrimidin-4-one], in data set [1], the “inhibition of HCV infection (in words)” value was “increased inhibition”.
With `COc1ccc([C@@]23Oc4cc(OC)cc(OC)c4[C@]2(O)c2nc(N4CCOCC4)[nH]c(=O)c2[C@H]3c2ccccc2)cc1` [12j, (5R,5aR,10bS)-10b-Hydroxy-8,10-dimethoxy-5a-(4-methoxyphenyl)-2-morpholino-5-phenyl-3,5,5a,10b-tetrahydro-4H-benzofuro[2′,3′:4,5]cyclopenta[1,2-d]pyrimidin-4-one], the “inhibition of HCV infection (in words)” value in data set [1] was “moderate antiviral activity”.
The same measure, in the same setting: the entry for `COc1ccc([C@@]23Oc4cc(OC)cc(OC)c4[C@]2(O)c2nc(-c4cnccn4)[nH]c(=O)c2[C@H]3c2ccccc2)cc1` [12y, (5R,5aR,10bS)-10b-Hydroxy-8,10-dimethoxy-5a-(4-methoxyphenyl)-5-phenyl-2-(pyrazin-2-yl)-3,5,5a,10b-tetrahydro-4H-benzofuro[2′,3′:4,5]cyclopenta[1,2-d]pyrimidin-4-one] is “slightly increased inhibition”.
